Measurements from patent US20220235094A1, “CRYSTALLINE FORMS OF ANTIDEPRESSANT DRUG SAGE-217 AND PREPARATION METHOD THEREFOR” (priority 2019, published 2022).
“Also recorded” adds a separate entry of the source.

Tests used:
[1] = Crystalline form stability as exposed powder and in sealed vial; details: for crystalline form stability in a sealed vial: 25° C./45% RH
[2] = Stability compared between crystalline forms
[3] = Crystalline form stability under different temperature and humidity conditions; format: physicochemical
Description: The samples of crystalline form 04 prepared in Example 1 were taken, and placed at 25° C./60% humidity and 40° C./75% humidity for 1 month; placed at 2-8° C. for 9 months: after the placement, the above-mentioned samples were taken out and tested for the crystalline form.

[4] = DVS test (moisture adsorption isotherm, hygroscopicity); format: physicochemical
Description: The sample of crystalline form 04 prepared in Example 1 was placed on a microbalance plate in a sealed sample chamber, and then exposed to different relative humidity, the relative humidity ranged from […] to 90%, and changed in 10% increments. At each humidity level, the sample is balanced when dm/dt is less than 0.002% within 10 minutes. The mass of the dried sample and the equilibrium mass at each humidity level were recorded, and the weight change was plotted against relative humidity, which is the moisture adsorption isotherm of the sample.
Regarding the description of hygroscopicity characteristics and the definition of hygroscopic weight gain (Appendix XIX J of Chinese Pharmacopoeia 2010 Edition, Guidelines for Hygroscopicity, with experimental conditions: 25±1° C., 80% relative humidity):
Deliquescent: sufficient water is absorbed to form liquid
Extremely hygroscopic: the increase in mass is not less than 15%
Hygroscopic: the increase in mass is less than 15% but not less than 2%
Slightly hygroscopic: the increase in mass is less than 2% but not less than 0.2%
Practical nonhygroscopic: the increase in mass is less than 0.2%.

[5] = Thermodynamic solubility test in water; format: physicochemical; details: 25° C., 24 hours; for Area: HPLC
Description: Thermodynamic solubility test: the solid powder was added to water to a saturated solution, and then the suspension liquid was stirred under magnetic stirring at 25° C. for 24 hours. After completion, it was filtered with a 0.20 μm filter and analyzed by HPLC. Tests were carried out in parallel, and each group was tested twice to take the average.

[6] = Mechanical pressure stability, XRPD after 2 tons of pressure; format: physicochemical; details: 2 tons of mechanical pressure; for XRPD change after mechanical pressure: 100 mg sample
Description: To further evaluate the mechanical stability of the crystalline form 04 of the present application and the crystalline form K reported in WO 2018/039378 A1, a 100 mg sample was subjected to 2 tons of mechanical pressure, and the recovered tablets were gently ground and tested by XRPD.

SMILES | time stable in the exposed powder state [1] [h] | crystalline form stability in a sealed vial [1] | stability compared with other crystalline forms [2] | Crystalline form after storage ([3]; 0-8° C., 9 months) | Crystalline form after storage ([3]; 2-8° C., 9 months) | Concentration (thermodynamic solubility) ([5]; Average) [µg/mL] | Concentration (thermodynamic solubility) ([5]; Group 1) [µg/mL] | Concentration (thermodynamic solubility) ([5]; Group 2) [µg/mL] | Area ([5]; Average) [mAu*s] | Area ([5]; Group 1) [mAu*s] | Area ([5]; Group 2) [mAu*s] | XRPD change after mechanical pressure [6] | other results
C[C@@]1(O)CC[C@H]2[C@H](CC[C@@H]3[C@@H]2CC[C@]2(C)[C@@H](C(=O)Cn4cc(C#N)cn4)CC[C@@H]32)C1 [crystalline form 06, 1-(2-((3R,5R,8R,9R,10S,13S,14S,17S)-3-hydroxy-3,13-dimethylhexadecahydro-1H-cyclopenta[a]phenanthren-17-yl)-2-oxoethyl)-1H-pyrazole-4-carbonitrile] | 16 | more than seven days |  |  |  |  |  |  |  |  |  |  | 
C[C@@]1(O)CC[C@H]2[C@H](CC[C@@H]3[C@@H]2CC[C@]2(C)[C@@H](C(=O)Cn4cc(C#N)cn4)CC[C@@H]32)C1 [crystalline form D-2, 1-(2-((3R,5R,8R,9R,10S,13S,14S,17S)-3-hydroxy-3,13-dimethylhexadecahydro-1H-cyclopenta[a]phenanthren-17-yl)-2-oxoethyl)-1H-pyrazole-4-carbonitrile] | 18 | more than seven days | better stability than crystalline form D |  |  |  |  |  |  |  |  |  | 
C[C@@]1(O)CC[C@H]2[C@H](CC[C@@H]3[C@@H]2CC[C@]2(C)[C@@H](C(=O)Cn4cc(C#N)cn4)CC[C@@H]32)C1 [crystalline form D-1, 1-(2-((3R,5R,8R,9R,10S,13S,14S,17S)-3-hydroxy-3,13-dimethylhexadecahydro-1H-cyclopenta[a]phenanthren-17-yl)-2-oxoethyl)-1H-pyrazole-4-carbonitrile] | 18 | more than seven days | better stability than crystalline form D | the crystalline form remains | the crystalline form did not change |  |  |  |  |  |  |  | 
C[C@@]1(O)CC[C@H]2[C@H](CC[C@@H]3[C@@H]2CC[C@]2(C)[C@@H](C(=O)Cn4cc(C#N)cn4)CC[C@@H]32)C1 [crystalline form 08, 1-(2-((3R,5R,8R,9R,10S,13S,14S,17S)-3-hydroxy-3,13-dimethylhexadecahydro-1H-cyclopenta[a]phenanthren-17-yl)-2-oxoethyl)-1H-pyrazole-4-carbonitrile] |  |  | relatively low stability |  |  |  |  |  |  |  |  |  | 
C[C@@]1(O)CC[C@H]2[C@H](CC[C@@H]3[C@@H]2CC[C@]2(C)[C@@H](C(=O)Cn4cc(C#N)cn4)CC[C@@H]32)C1 [crystalline form 04, 1-(2-((3R,5R,8R,9R,10S,13S,14S,17S)-3-hydroxy-3,13-dimethylhexadecahydro-1H-cyclopenta[a]phenanthren-17-yl)-2-oxoethyl)-1H-pyrazole-4-carbonitrile] |  | more than seven days |  | the crystalline form remains | form 04 | 0.4375 | 0.4506 | 0.4243 | 12.2 | 12.6 | 11.8 | no obvious change | hygroscopicity ([4]; DVS curve): no or almost no hygroscopicity; also recorded: no hygroscopicity; water absorption ([4]; DVS, 25° C., relative humidity changed from 40%/0 to 90%): 0.06%; Crystalline form after storage ([3]; 25° C., 60% relative humidity, 1 month): stored stably for one month without change; also recorded: form 04; Crystalline form after storage ([3]; 40° C., 75% relative humidity, 1 month): stored stably for one month without change; also recorded: form 04; mechanical / physical stability compared with crystalline form K [6]: better than that of the crystalline form K; also recorded: better mechanical stress stability; time stable in the exposed powder state ([1]; time in words): one day
C[C@@]1(O)CC[C@H]2[C@H](CC[C@@H]3[C@@H]2CC[C@]2(C)[C@@H](C(=O)Cn4cc(C#N)cn4)CC[C@@H]32)C1 [crystalline form K, 1-(2-((3R,5R,8R,9R,10S,13S,14S,17S)-3-hydroxy-3,13-dimethylhexadecahydro-1H-cyclopenta[a]phenanthren-17-yl)-2-oxoethyl)-1H-pyrazole-4-carbonitrile, reference compound] |  |  |  |  |  | 0.398 | 0.3927 | 0.4032 | 11.1 | 10.9 | 11.2 | a slight decrease in its crystallinity | 
